The source of these data is ChEMBL document CHEMBL1201862, “PubChem BioAssay data set” (2004).

The structures appear in SMILES notation.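 All cell lines were grown in 96-well plates and treated with compound for 48 hours. GI50 marks 50% less growth.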 Calls of active or inactive are those of the source. No stated cut-off is given here; in the data, active = GI50 up to about 1.1 µM and inactive = higher.

Some test systems named below: SF-295; SF-539; Malme-3M; M14; HL-60; TK-10; RXF 393; CAKI-1; PC-3; OVCAR-4; U-251; HT-29; NCI-H226; NCI-H522; DU-145; NCI/ADR-RES; RPMI-8226; HCC 2998; COLO 205; SNB-75.
Common to all, as to assay: NCI-60 cell line screen, 48 h

As to `O=S(=O)(/N=C(\NO)Nc1ccc(Cl)cc1)C1CC=C(c2ccon2)S1` (stereo not drawn), the GI50 was 40.7 µM (inactive) with SF-295; 1.2 µM (inactive) in the test on SF-539; 1.55 µM (inactive) in the test with Malme-3M; 29 µM (inactive) with M14; 1.18 µM (inactive) with HL-60; 14.4 µM (inactive) in the test with TK-10. For the same compound, the GI50 was 6.31 µM (inactive) in the test on RXF 393; 2.39 µM (inactive) in the test with CAKI-1; 14.8 µM (inactive) in the test on PC-3; 3.52 µM (inactive) in the test with OVCAR-4; 15.8 µM (inactive) in the test on U-251; 42.7 µM (inactive) in the test on HT-29. Also, the GI50 in the test with NCI-H226 was 13.4 µM (inactive); in the test on NCI-H522, 1.13 µM (inactive); with DU-145, 55.3 µM (inactive); with NCI/ADR-RES, 22.1 µM (inactive); in the test with RPMI-8226, 6.07 µM (inactive); with HCC 2998, 15.3 µM (inactive). The GI50 in the test with COLO 205 is 15.7 µM (inactive).

Consider `COc1cc(CNc2c3ccccc3nc3ccccc23)cc(OC)c1OC`, for which the GI50 is 3.56 µM (inactive) in the test with SF-295; 3.95 µM (inactive) with SF-539; 3.71 µM (inactive) in the test with Malme-3M; 2.59 µM (inactive) with M14; 5.53 µM (inactive) in the test with TK-10; 4.02 µM (inactive) in the test on SNB-75. Besides, the GI50 in the test on RXF 393 was 2.86 µM (inactive); in the test on CAKI-1 it was 2.74 µM (inactive); in the test on PC-3, 3.23 µM (inactive); in the test with OVCAR-4, 2.1 µM (inactive); in the test on U-251 it was 5.08 µM (inactive); in the test on HT-29, 2.49 µM (inactive). Moreover, the GI50 with NCI-H226 was 3.15 µM (inactive); with NCI-H522, 2.55 µM (inactive); with DU-145 it was 4.52 µM (inactive); in the test on NCI/ADR-RES, 4.16 µM (inactive); with RPMI-8226, 2.82 µM (inactive); in the test with HCC 2998 it was 2.78 µM (inactive). In the test with COLO 205, the GI50 is 1.69 µM (inactive).

Take `CCOC(=O)/C(C#N)=C(/NS(=O)(=O)c1cc(C)c(Cl)cc1[S-])[n+]1ccc(N(C)C)cc1`: the GI50 in the test with SF-295, in the test on SF-539, with Malme-3M, in the test with M14, in the test with HL-60 and in the test on TK-10 was > 100 µM (inactive) in each case. The GI50 with RXF 393, in the test with CAKI-1, in the test on PC-3, in the test on OVCAR-4, in the test with U-251 and in the test on HT-29 was > 100 µM (inactive) throughout. Besides, the GI50 in the test on NCI-H226, in the test on NCI-H522, with DU-145, in the test with NCI/ADR-RES, in the test with RPMI-8226 and with HCC 2998 was > 100 µM (inactive) each time. In the test on COLO 205, the GI50 was > 100 µM (inactive).

On to `COC(=O)c1cc2c3c(cc(NCCN)c2[nH]1)N(C(=O)c1cc2cc(OC)c(OC)c(OC)c2[nH]1)CC3CCl` (stereo not drawn), for which the GI50 with SF-295 was 0.228 µM (active); in the test on SF-539, 0.0392 µM (active); in the test with Malme-3M, 0.0377 µM (active); in the test on M14, 0.118 µM (active); in the test on TK-10, 0.366 µM (active); in the test on SNB-75 it was 0.0382 µM (active). Besides, the GI50 in the test on RXF 393 is 0.0301 µM (active); in the test with CAKI-1 it was 0.144 µM (active); in the test on PC-3, 0.0269 µM (active); with OVCAR-4 it was 0.0925 µM (active); in the test with U-251, 0.0144 µM (active); with HT-29, 0.0277 µM (active). For the same compound, the GI50 was 0.0177 µM (active) with NCI-H226; < 0.01 µM (active) in the test with NCI-H522; 0.0221 µM (active) in the test with DU-145; 0.358 µM (active) in the test with NCI/ADR-RES; 0.25 µM (active) in the test with RPMI-8226; 0.0982 µM (active) in the test with HCC 2998. In addition, the GI50 in the test with COLO 205 is 0.0559 µM (active).

Consider `Cc1csc2nc(-c3cc([N+](=O)[O-])c(Cl)cc3Cl)c(/C=N/N=C(N)N)n12`, for which the GI50 with SF-295 was 17.8 µM (inactive); in the test on SF-539, 18.7 µM (inactive); with Malme-3M, 17.8 µM (inactive); in the test on M14 it was 17.1 µM (inactive); in the test on HL-60 it was 13.5 µM (inactive); in the test on TK-10, 16.8 µM (inactive). The GI50 in the test on RXF 393 is 15.9 µM (inactive); with CAKI-1 it was 15.6 µM (inactive); in the test with PC-3, 16.4 µM (inactive); in the test with OVCAR-4 it was 16 µM (inactive); in the test on U-251, 16.6 µM (inactive); in the test with HT-29, 16.1 µM (inactive). Also, the GI50 in the test with NCI-H226 is 18.5 µM (inactive); with NCI-H522 it was 15.9 µM (inactive); in the test on DU-145 it was 16.7 µM (inactive); in the test with NCI/ADR-RES, 15.3 µM (inactive); in the test with RPMI-8226, 16.7 µM (inactive); with HCC 2998 it was 7.19 µM (inactive). The GI50 in the test with COLO 205 is 17.9 µM (inactive).

Regarding `COc1cc2cc(C(=O)N3CC(CCl)c4c3cc(N)c3ccccc43)[nH]c2cc1OCCN(C)C` (stereo not drawn), the GI50 was < 0.005 µM (active) in the test with SF-295; < 0.005 µM (active) in the test with SF-539; 0.0053 µM (active) in the test on Malme-3M; < 0.005 µM (active) with M14; 0.00522 µM (active) with TK-10; < 0.005 µM (active) with SNB-75. The GI50 is < 0.005 µM (active) in the test with RXF 393; < 0.005 µM (active) with CAKI-1; < 0.005 µM (active) in the test on PC-3; 0.00628 µM (active) in the test with OVCAR-4; < 0.005 µM (active) in the test with U-251; 0.5 µM (active) with HT-29. In addition, the GI50 was 0.00528 µM (active) in the test on NCI-H226; < 0.005 µM (active) in the test with NCI-H522; < 0.005 µM (active) in the test on DU-145; 0.00931 µM (active) in the test with NCI/ADR-RES; < 0.005 µM (active) in the test with RPMI-8226; < 0.005 µM (active) in the test with HCC 2998. Besides, in the test with COLO 205, the GI50 was < 0.005 µM (active).

In the case of `ClC(Cl)(Cl)C1CCOC1n1nc2ccccc2n1` (stereo not drawn), the GI50 in the test with SF-295 was > 100 µM (inactive); in the test with SF-539, > 100 µM (inactive); in the test on Malme-3M it was > 100 µM (inactive); with M14, > 100 µM (inactive); with HL-60 it was 49.9 µM (inactive); in the test on TK-10 it was > 100 µM (inactive). Moreover, the GI50 in the test on SNB-75 was 28.2 µM (inactive); in the test on RXF 393, > 100 µM (inactive); in the test on CAKI-1 it was > 100 µM (inactive); in the test with PC-3, > 100 µM (inactive); in the test with OVCAR-4, > 100 µM (inactive); in the test with U-251, > 100 µM (inactive). Moreover, the GI50 with HT-29, with NCI-H226, with NCI-H522, in the test with DU-145, in the test with NCI/ADR-RES and with HCC 2998 was > 100 µM (inactive) each time. In the test with COLO 205, the GI50 was > 100 µM (inactive).

`NCC(Cc1ccccc1)P(=O)(O)O` (stereo not drawn): the GI50 with SF-295, in the test on SF-539, in the test on Malme-3M, in the test with M14, with HL-60 and in the test on TK-10 was > 100 µM (inactive) throughout. Further, the GI50 in the test on SNB-75, in the test on RXF 393, in the test with CAKI-1, with PC-3, in the test on OVCAR-4 and with U-251 was > 100 µM (inactive) each time. Further, the GI50 in the test with HT-29, with NCI-H226, in the test with NCI-H522, in the test on DU-145, with NCI/ADR-RES and in the test on HCC 2998 was > 100 µM (inactive) in each case. The GI50 with COLO 205 is > 100 µM (inactive).

For `COc1ccc2c(c1)-c1c(c3cc(OC)ccc3n1CCN1CCOCC1)CC2`, the GI50 was 18.9 µM (inactive) with SF-295; 28.4 µM (inactive) in the test with SF-539; 28.2 µM (inactive) in the test on Malme-3M; 15.8 µM (inactive) with M14; 32.7 µM (inactive) in the test with TK-10; 19.8 µM (inactive) in the test on SNB-75. The GI50 was 27.1 µM (inactive) in the test on RXF 393; 44.2 µM (inactive) in the test on CAKI-1; 24.2 µM (inactive) in the test on PC-3; 54 µM (inactive) in the test on OVCAR-4; 29.4 µM (inactive) in the test on U-251; 13.5 µM (inactive) in the test with HT-29. Besides, the GI50 in the test with NCI-H226 is 14.7 µM (inactive); in the test on NCI-H522 it was 23.3 µM (inactive); in the test with DU-145, 37.8 µM (inactive); in the test on NCI/ADR-RES, 20.7 µM (inactive); with RPMI-8226, 20.5 µM (inactive); in the test on HCC 2998, 1.76 µM (inactive). For the same compound, in the test on COLO 205, the GI50 is 20 µM (inactive).

Regarding `COC(=O)[C@H](CCSC)NC(=O)c1ccc(CNC(=O)/C(C)=C/c2ccccc2)cc1`, the GI50 was 48.5 µM (inactive) with SF-295; 26.5 µM (inactive) in the test with SF-539; 15.3 µM (inactive) in the test on Malme-3M; 30.8 µM (inactive) with M14; > 100 µM (inactive) in the test with TK-10; 3.81 µM (inactive) in the test on SNB-75. In addition, the GI50 was 15.8 µM (inactive) with RXF 393; 30.6 µM (inactive) in the test on CAKI-1; 47 µM (inactive) with PC-3; 31.1 µM (inactive) in the test on OVCAR-4; 31 µM (inactive) in the test on U-251; 21 µM (inactive) in the test on HT-29. Moreover, the GI50 with NCI-H226 was > 100 µM (inactive); in the test with NCI-H522, 10.8 µM (inactive); in the test on DU-145, 37.9 µM (inactive); in the test with NCI/ADR-RES it was 25.9 µM (inactive); with RPMI-8226 it was > 100 µM (inactive); with HCC 2998, 9.48 µM (inactive). The GI50 in the test with COLO 205 is > 100 µM (inactive).

As for `NC(=O)NC(=O)c1cccc(NC(=O)CBr)c1`, the GI50 in the test on SF-295 is 0.197 µM (active); with SF-539, < 0.0362 µM (active); in the test with M14, 0.198 µM (active); in the test with HL-60, < 0.01 µM (active); in the test on TK-10 it was < 0.0231 µM (active); with RXF 393, < 0.019 µM (active). The GI50 was < 0.01 µM (active) in the test on CAKI-1; < 0.0182 µM (active) with PC-3; 0.0706 µM (active) in the test on OVCAR-4; < 0.018 µM (active) in the test on U-251; < 0.0168 µM (active) with HT-29; < 0.0188 µM (active) in the test on NCI-H226. Further, the GI50 is < 0.01 µM (active) in the test on NCI-H522; < 0.022 µM (active) in the test with DU-145; < 0.0171 µM (active) with NCI/ADR-RES; < 0.0141 µM (active) in the test with RPMI-8226; 0.282 µM (active) with HCC 2998; < 0.01 µM (active) in the test with COLO 205.
